Tests used:
Assay in all cases: Bliss excess, mean over the matrix (fraction); higher = more synergy
[1] = tested on: OC-314 (Ovarian Carcinoma)
Outline: (§1)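 After 24 hours at 37°C and 5% CO2 in 1536-well plates, cells in DMEM/F12 or RPMI plus 10% FBS received two-drug dose matrices for 72 hours. Viability came from CellTiter-Glo 2.0 luminescence and was scaled as inhibition, anchored at 0 by vehicle wells and at 1 by blank wells. Combination Emax is taken as the second-highest inhibition in the matrix, and Bliss excess as the observed combination effect less EA + EB − EA·EB, with EA and EB the single-agent effects.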

[2] = tested on: HCC-15 (Squamous Cell Lung Carcinoma)
Outline: as §1

[3] = tested on: SW626 (Colorectal Carcinoma)
Outline: as §1

[4] = tested on: NCI-H747 (Colorectal Carcinoma)
Outline: as §1

[5] = tested on: MHH-PREB-1 (B-Cell Non-Hodgkin's Lymphoma)
Outline: as §1

[6] = tested on: SW1116 (Colorectal Carcinoma)
Outline: as §1

[7] = tested on: SU-DHL-6 (B-Cell Non-Hodgkin's Lymphoma)
Outline: as §1

[8] = tested on: TE-4 (Esophageal Squamous Cell Carcinoma)
Outline: as §1

## COc1nnc2ccc(N3CCC(c4ccc(OCCN5CCN(C)C(=O)[C@H]5C)cc4)CC3)nn12 [AZD5153] + Cn1cnc2c(F)c(Nc3ccc(Br)cc3Cl)c(C(=O)NOCCO)cc21 [Selumetinib] (first compound max 1 µM, 7x7, partner max 10 µM)
[1]
  Bliss excess: -0.064
[2]
  Bliss excess: 0.0567
[3]
  Bliss excess: -0.005
[4]
  Bliss excess: -0.0727
[5]
  Bliss excess: -0.0323
[6]
  Bliss excess: 0.0036
[7]
  Bliss excess: -0.0278
[8]
  Bliss excess: 0.0311

## C[C@@H](c1ccc2nccn2c1)n1nnc2ncc(-c3cnn(C)c3)nc21 [Savolitinib] + CC1(C)CCC(CN2CCN(c3ccc(C(=O)NS(=O)(=O)c4ccc(NCC5CCOCC5)c([N+](=O)[O-])c4)c(Oc4cnc5[nH]ccc5c4)c3)CC2)=C(c2ccc(Cl)cc2)C1 [Venetoclax] (first compound max 1 µM, 7x7, partner max 1 µM)
[1]
  Bliss excess: -0.0046
[2]
  Bliss excess: -0.0229
[3]
  Bliss excess: -0.066
[4]
  Bliss excess: -0.0817
[5]
  Bliss excess: -0.0286
[6]
  Bliss excess: -0.0595
[7]
  Bliss excess: 0.0481
[8]
  Bliss excess: -0.009

## CC1(C)CCC(CN2CCN(c3ccc(C(=O)NS(=O)(=O)c4ccc(NCC5CCOCC5)c([N+](=O)[O-])c4)c(Oc4cnc5[nH]ccc5c4)c3)CC2)=C(c2ccc(Cl)cc2)C1 [Venetoclax] + Cn1cnc2c(F)c(Nc3ccc(Br)cc3Cl)c(C(=O)NOCCO)cc21 [Selumetinib] (first compound max 1 µM, 7x7, partner max 3 µM)
[1]
  Bliss excess: -0.0214
[2]
  Bliss excess: 0.0315
[3]
  Bliss excess: -0.0877
[4]
  Bliss excess: -0.0489
[5]
  Bliss excess: 0.0028
[6]
  Bliss excess: -0.0736
[7]
  Bliss excess: 0.0155
[8]
  Bliss excess: -0.0277

## NC1(C(=O)N[C@@H](CCO)c2ccc(Cl)cc2)CCN(c2ncnc3[nH]ccc23)CC1 [Capivasertib] + C[C@@H]1COCCN1C2=NC(=NC(=C2)C3(CC3)[S@](=N)(=O)C)C4=C5C=CNC5=NC=C4 [AZD6738] (first compound max 10 µM, 7x7, partner max 10 µM)
[1]
  Bliss excess: -0.024
[2]
  Bliss excess: -0.0459
[3]
  Bliss excess: -0.0622
[4]
  Bliss excess: -0.0316
[5]
  Bliss excess: -0.0486
[6]
  Bliss excess: -0.011
[7]
  Bliss excess: 0.0023
[8]
  Bliss excess: -0.0349

## NC1(C(=O)N[C@@H](CCO)c2ccc(Cl)cc2)CCN(c2ncnc3[nH]ccc23)CC1 [Capivasertib] + CC(=O)c1c(C)c2cnc(Nc3ccc(N4CCNCC4)cn3)nc2n(C2CCCC2)c1=O [Palbociclib] (first compound max 10 µM, 7x7, partner max 10 µM)
[1]
  Bliss excess: 0.0028
[2]
  Bliss excess: -0.0442
[3]
  Bliss excess: 0.014
[4]
  Bliss excess: -0.0032
[5]
  Bliss excess: -0.0158
[6]
  Bliss excess: -0.0297
[7]
  Bliss excess: 0.0059
[8]
  Bliss excess: 0.0094

## CS(=O)(=O)CCNCc1ccc(-c2ccc3ncnc(Nc4ccc(OCc5cccc(F)c5)c(Cl)c4)c3c2)o1 [Lapatinib] + C[C@@H](Oc1cc(-c2cnn(C3CCNCC3)c2)cnc1N)c1c(Cl)ccc(F)c1Cl [Crizotinib] (first compound max 10 µM, 7x7, partner max 10 µM)
[1]
  Bliss excess: -0.0479
[2]
  Bliss excess: -0.0179
[3]
  Bliss excess: -0.0681
[4]
  Bliss excess: -0.0413
[5]
  Bliss excess: -0.0164
[6]
  Bliss excess: -0.0106
[7]
  Bliss excess: -0.0299
[8]
  Bliss excess: 0.0198

## C=CCn1c(=O)c2cnc(Nc3ccc(N4CCN(C)CC4)cc3)nc2n1-c1cccc(C(C)(C)O)n1 [AZD1775] + CCc1c2c(nc3ccc(O)cc13)-c1cc3c(c(=O)n1C2)COC(=O)[C@]3(O)CC [SN-38] (first compound max 1 µM, partner max 0.3 µM)
[1]
  Bliss excess: 0.0032
[6]
  Bliss excess: -0.0987
[7]
  Bliss excess: 0.0224

## Cc1nc(-c2cn3c(n2)-c2ccc(-c4cnn(C(C)(C)C(N)=O)c4)cc2OCC3)n(C(C)C)n1 [Taselisib] + O=C(Nc1ccc2[nH]nc(-c3ccncc3)c2c1)[C@@H]1CCN(CC(=O)N2CCN(c3ccc(-c4ncccn4)cc3)CC2)C1 [SCH772984] (first compound max 10 µM, 7x7, partner max 5 µM)
[1]
  Bliss excess: 0.0521
[6]
  Bliss excess: 0.0831
[7]
  Bliss excess: 0.0251

## CS(=O)(=O)CCNCc1ccc(-c2ccc3ncnc(Nc4ccc(OCc5cccc(F)c5)c(Cl)c4)c3c2)o1 [Lapatinib] + Cn1cnc2c(F)c(Nc3ccc(Br)cc3Cl)c(C(=O)NOCCO)cc21 [Selumetinib] (first compound max 10 µM, 7x7, partner max 10 µM)
[1]
  Bliss excess: 0.0644
[6]
  Bliss excess: 0.0744
[7]
  Bliss excess: 0.0412

## CS(=O)(=O)CCNCc1ccc(-c2ccc3ncnc(Nc4ccc(OCc5cccc(F)c5)c(Cl)c4)c3c2)o1 [Lapatinib] + NC1(c2ccc(-c3nc4ccn5c(=O)[nH]nc5c4cc3-c3ccccc3)cc2)CCC1 [MK-2206] (first compound max 10 µM, 7x7, partner max 10 µM)
[1]
  Bliss excess: 0.043
[4]
  Bliss excess: -0.126
[6]
  Bliss excess: -0.01
[7]
  Bliss excess: 0.0378

Source: the supplement of paper PMC11061612
